Test results: patent US4698329A, “New renin-inhibitory peptides and their use” (Sankyo Company, Limited, priority 1984, dated 1987)
Square brackets hold non-standard residues; d marks the D form. Peptide text beside a SMILES is read from it. * marks the point of attachment. 1Nal = N[C@@H](Cc1cccc2ccccc12)C(=O)O; Sta = CC(C)C[C@H](N)[C@@H](O)CC(=O)O; Cbz = O=C(OCc1ccccc1)*; NHBu = CCCCN*; NHNH2 = NN*

What follows are compounds tested against T1, human renin (Homo sapiens, UniProt P00797) (assay: Inhibition of renin activity (human renin, sheep angiotensinogen)). Conditions: concentration of test cpd. 1 × 10^-5 M, pH 7.3, 10 minutes at 37° C., mean of 3 or 4 experiments.
T1 sequence (P00797 67-406): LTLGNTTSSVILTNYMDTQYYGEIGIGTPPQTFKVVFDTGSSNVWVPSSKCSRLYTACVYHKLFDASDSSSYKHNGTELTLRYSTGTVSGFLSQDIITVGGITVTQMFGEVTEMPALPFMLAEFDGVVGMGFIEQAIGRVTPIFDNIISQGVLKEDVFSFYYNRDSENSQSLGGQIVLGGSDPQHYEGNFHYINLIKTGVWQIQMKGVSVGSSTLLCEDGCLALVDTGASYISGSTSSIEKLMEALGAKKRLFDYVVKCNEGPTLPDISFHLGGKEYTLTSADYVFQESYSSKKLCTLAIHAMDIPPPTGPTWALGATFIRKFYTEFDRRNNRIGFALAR
Assay type: biochemical
Description: The ability of various compounds of the invention to inhibit the activity of renin was determined according to the following method, which follows essentially the procedure of Kokubu et al. [Hypertension, 5, 191-197 (1983)].
Specifically, each test compound was dissolved in 60% v/v aqueous ethanol. Human renin activity in the presence and absence of each compound was measured using sheep angiotensinogen. The total volume of 1 ml of assay mixture contained 0.1 mole/liter phosphate buffer (pH 7.3), human renin (equivalent to 0.5 ng angiotensin I per ml per minute), sheep angiotensinogen (equivalent to 200 ng angiotensin I), the indicated concentration of the test compound, 6% ethanol and angiotensinase inhibitors (10 mmole/liter sodium ethylenediaminetetraacetate and 3.4 mmole/liter 8-hydroxyquinoline). The mixture was allowed to react for 10 minutes at 37° C., and then the reaction was stopped by placing the reaction tube in a boiling water bath for 5 minutes. The mixture was then centrifuged and the supernatant (0.05-0.1 ml) was used to assay remaining angiotensin I.
An identical experiment was carried out, as a control, except that the test compound was omitted. From the values obtained were calculated the % inhibition of renin activity achieved by each test compound. The results are shown in the following Table, in which the compounds of the invention are identified by the numbers assigned to them in the foregoing list. The values given are the mean of 3 or 4 experiments.

| % Inhibition (human renin) [%] | Compound |
| --- | --- |
| 95 | CCCCNC(=O)C[C@H](O)[C@H](CC(C)C)NC(=O)[C@H](Cc1c[nH]cn1)NC(=O)[C@H](Cc1cccc2ccccc12)NC(=O)OCc1ccccc1 [Compound 64, 4(S)-[N-benzyloxycarbonyl-3-(1-naphthyl)-L-alanyl-L-histidyl]amino-N-butyl-3(S)-hydroxy-6-methylheptanamide] (Cbz-[1Nal]-His-[Sta]-NHBu) |
| 98 | CC[C@H](C)[C@@H](CO)NC(=O)C[C@H](O)[C@H](CC(C)C)NC(=O)[C@H](Cc1c[nH]cn1)NC(=O)[C@H](Cc1cccc2ccccc12)NC(=O)OCc1ccccc1 [Compound 67, N-{4(S)-[N-benzyloxycarbonyl-3-(1-naphthyl)-L-alanyl-L-histidyl]amino-3(S)-hydroxy-6-methylheptanoyl}-L-isoleucinol] |
| 84 | CC(C)C[C@H](NC(=O)[C@H](Cc1c[nH]cn1)NC(=O)[C@H](Cc1cccc2ccccc12)NC(=O)OCc1ccccc1)[C@@H](O)CC(=O)NNC(=O)CCCc1ccccc1 [Compound 39, N^1 -{4(S)-[N-benzyloxycarbonyl-3-(1-naphthyl)-L-alanyl-L-histidyl]amino-3(S)-hydroxy-6-methylheptanoyl}-N^2-(4-phenylbutyryl)hydrazine] |
| 99 | CCC(C)CNC(=O)C[C@H](O)[C@H](CC(C)C)NC(=O)[C@@H](Cc1c[nH]cn1)NC(=O)[C@H](Cc1cccc2ccccc12)NC(=O)OCc1ccccc1 (stereo partly drawn) [Compound 93, 4(S)-[N-benzyloxycarbonyl-3-(1-naphthyl)-L-alanyl-D-histidyl]amino-3(S)-hydroxy-6-methyl-N-(2-methylbutyl)heptanamide] |
| 72 | CC(C)C[C@H](NC(=O)[C@H](Cc1c[nH]cn1)NC(=O)[C@H](Cc1cccc2ccccc12)NC(=O)OCc1ccccc1)[C@@H](O)CC(=O)O [Compound 3, 4(S)-[N-benzyloxycarbonyl-3-(1-naphthyl)-L-alanyl-L-histidyl]amino-3(S)-hydroxy-6-methylheptanoic acid] (Cbz-[1Nal]-His-[Sta]-OH) |
| 89 | CC(C)C[C@H](NC(=O)[C@H](Cc1c[nH]cn1)NC(=O)[C@H](Cc1cccc2ccccc12)NC(=O)OCc1ccccc1)[C@@H](O)CC(=O)NN [Compound 38, 4(S)-[N-benzyloxycarbonyl-3-(1-naphthyl)-L-alanyl-L-histidyl]amino-3(S)-hydroxy-6-methylheptanoic acid hydrazide] (Cbz-[1Nal]-His-[Sta]-NHNH2) |
| 96 | CCNC(=O)C[C@H](O)[C@H](CC(C)C)NC(=O)[C@H](Cc1c[nH]cn1)NC(=O)[C@H](Cc1cccc2ccccc12)NC(=O)OCc1ccccc1 [Compound 66, 4(S)-[N-benzyloxycarbonyl-3-(1-naphthyl)-L-alanyl-L-histidyl]amino-N-ethyl-3(S)-hydroxy-6-methylheptanamide] (Cbz-[1Nal]-His-[Sta]-NHEt) |
| 79 | CCOC(=O)C[C@H](O)[C@H](CC(C)C)NC(=O)[C@H](Cc1c[nH]cn1)NC(=O)[C@H](Cc1cccc2ccccc12)NC(=O)OCc1ccccc1 [Compound 5, ethyl 4(S)-[N-benzyloxycarbonyl-3-(1-naphthyl)-L-alanyl-L-histidyl]amino-3(S)-hydroxy-6-methylheptanoate] (Cbz-[1Nal]-His-[Sta]-OEt) |
| 84 | CC(C)C[C@H](NC(=O)[C@H](Cc1c[nH]cn1)NC(=O)[C@H](Cc1cccc2ccccc12)NC(=O)OCc1ccccc1)[C@@H](O)CC(=O)N1CCC(c2ccccc2)CC1 [Compound 36, 1-{4(S)-[N-benzyloxycarbonyl-3-(1-naphthyl)-L-alanyl-L-histidyl]amino-3(S)-hydroxy-6-methylheptanoyl}-4-phenylpiperidine] |
| 53 | COC(=O)[C@@H](O)[C@H](CC(C)C)NC(=O)[C@H](Cc1c[nH]cn1)NC(=O)[C@H](Cc1cccc2ccccc12)NC(=O)OCc1ccccc1 [Compound 62, methyl 3(S)-[N-benzyloxycarbonyl-3-(1-naphthyl)-L-alanyl-L-histidyl]amino-2(S)-hydroxy-5-methylhexanoate] |
| 99 | CC[C@H](C)CNC(=O)C[C@H](O)[C@H](CC(C)C)NC(=O)[C@H](Cc1c[nH]cn1)NC(=O)[C@H](Cc1cccc2ccccc12)NC(=O)OCc1ccccc1 [Compound 65, 4(S)-[N-benzyloxycarbonyl-3-(1-naphthyl)-L-alanyl-L-histidyl]amino-3(S)-hydroxy-6-methyl-N-[S-(-)-2-methylbutyl]heptanamide] |

Same assay, conditions: concentration of test cpd. 1 × 10^-6 M, pH 7.3, 10 minutes at 37° C., mean of 3 or 4 experiments

| % Inhibition (human renin) [%] | Compound |
| --- | --- |
| 99.1 | CC[C@H](C)[C@@H](CO)NC(=O)C[C@H](O)[C@H](CC(C)C)NC(=O)[C@H](CC(C)C)NC(=O)[C@H](Cc1cccc2ccccc12)NC(=O)OCc1ccccc1 [Compound 208, N-{4(S)-[N-benzyloxycarbonyl-3-(1-naphthyl)-L-alanyl-L-leucyl]amino-3(S)-hydroxy-6-methylheptanoyl}-L-isoleucinol] |
| 98.2 | CCC(C)CNC(=O)C[C@H](O)[C@H](CC(C)C)NC(=O)C(Cc1cscn1)NC(=O)[C@H](Cc1cccc2ccccc12)NC(=O)OCc1ccccc1 (mixture of isomers) [Compound 238, N-(2-methylbutyl)-4(S)-[N-benzyloxycarbonyl-3-(1-naphthyl)-L-alanyl-3-(1,3-thiazol-4-yl)-DL-alanyl]amino-3(S)-hydroxy-6-methylheptanamide] |
| 98.4 | CCC(C)CNC(=O)C[C@H](O)[C@H](CC(C)C)NC(=O)[C@H](CC(C)C)NC(=O)[C@H](Cc1cccc2ccccc12)NC(=O)OCc1ccccc1 (stereo partly drawn) [Compound 207, N-(2-methylbutyl)-4(S)-[N-benzyloxycarbonyl-3-(1-naphthyl)-L-alanyl-L-leucyl]amino-3(S)-hydroxy-6-methylheptanamide] |
